The source of these data is patent publication US20250066864A1, “METHODS FOR IDENTIFYING ADAR1 INHIBITORS, AND COMPOSITIONS AND METHODS OF USE IN TREATING CANCER” (The Wistar Institute of Anatomy and Biology, priority 2021, published 2025).

In assay [1] the target is T1, ADAR1p110 (Homo sapiens, UniProt P55265).
T1 construct: HAT (N); FLAG (alternative preparation, not on the same molecule as HAT) (N); made in house; host or cells: Sf9 insect cells, baculovirus
T1 sequence (P55265 1-931 isoform P55265-5): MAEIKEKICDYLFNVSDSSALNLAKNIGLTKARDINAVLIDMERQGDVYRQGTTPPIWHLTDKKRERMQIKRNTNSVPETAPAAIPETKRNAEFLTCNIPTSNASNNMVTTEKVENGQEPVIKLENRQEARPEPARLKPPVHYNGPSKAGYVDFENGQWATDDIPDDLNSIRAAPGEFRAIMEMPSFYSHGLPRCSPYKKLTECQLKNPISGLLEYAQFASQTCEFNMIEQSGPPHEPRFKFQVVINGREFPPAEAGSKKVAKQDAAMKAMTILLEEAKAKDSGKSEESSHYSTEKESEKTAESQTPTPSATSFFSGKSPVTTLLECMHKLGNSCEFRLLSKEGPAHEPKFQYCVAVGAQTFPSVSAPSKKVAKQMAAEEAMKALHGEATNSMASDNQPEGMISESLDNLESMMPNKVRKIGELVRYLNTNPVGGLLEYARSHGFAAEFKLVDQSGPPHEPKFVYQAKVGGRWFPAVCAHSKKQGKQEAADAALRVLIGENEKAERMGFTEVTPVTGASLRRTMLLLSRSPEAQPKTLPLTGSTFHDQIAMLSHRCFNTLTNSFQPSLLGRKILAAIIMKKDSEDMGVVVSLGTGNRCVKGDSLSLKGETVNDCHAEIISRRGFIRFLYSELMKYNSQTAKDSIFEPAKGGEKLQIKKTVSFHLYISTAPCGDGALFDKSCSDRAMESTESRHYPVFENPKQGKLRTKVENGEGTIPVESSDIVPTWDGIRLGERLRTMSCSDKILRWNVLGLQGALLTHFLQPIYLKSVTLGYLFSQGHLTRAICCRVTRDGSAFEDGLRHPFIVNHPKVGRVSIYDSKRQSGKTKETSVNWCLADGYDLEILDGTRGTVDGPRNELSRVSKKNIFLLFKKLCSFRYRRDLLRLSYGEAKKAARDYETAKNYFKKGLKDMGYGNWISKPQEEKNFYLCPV
The experiment in a line: in vitro editing assay with recombinant ADAR1p110 and dsRNA or DNA:RNA substrates. As to conditions: for inhibitory potency of ADAR1 p110 editing activity (SAR analogs): data not shown. The class given is biochemical. The protocol: FIG. 26A-FIG. 26B show determination of IC50 by in vitro editing assay. In vitro editing assay using purified ADAR1p110 protein and two different substrates, matched (left) and mismatched (right) dsRNAs, was conducted in the presence of varying concentrations of compound #1 (FIG. 26A) or #13 (FIG. 26B) in order to estimate IC50 values for these compounds. In vitro editing was carried out using HAT-ADAR1p110 or HAT-ADAR2 recombinant protein (10 nM) and two different dsRNA substrates carrying a part of the CDK13 gene sequence (5 nM) at 37° C. for 2 hrs as described previously (12). Compounds were dissolved in 100% DMSO. The in vitro assay contained DMSO at final concentration of 16%.
The in vitro editing reaction mixture, containing 5 nM of telomere RNA:RNA duplex substrates and 75 nM of HAT-ADAR1p110-WT, FLAG-ADAR1p110-WT, or HA-ADAR1p110-EAA protein, was incubated at 37° C. for 2 h in in vitro editing buffer I (20 mM HEPES-KOH pH 7.5, 100 mM NaCl, 0.01% NP-40, 5% glycerol, 1 mM DTT). For editing of RNA:DNA hybrid substrates, in vitro editing buffer II (20 mM HEPES-KOH pH 7.5, 20 mM NaCl, 0.01% NP-40, 5% glycerol, 1 mM DTT) was used. Edited RNA or DNA strands were purified using Dynabeads MyOne Streptavidin C1 (Thermo Fisher Scientific). To remove opposite RNA or DNA strands, rNase H (NEB) or TURBO dNase (Thermo Fisher Scientific) was used, respectively. For sequencing of edited substrates, reverse transcription-PCR was carried out for RNA strands, while PCR was carried out for DNA strands. RT reactions were carried out using SuperScript III Reverse Transcriptase (Thermo Fisher Scientific), and PCR reactions were performed using Platinum Taq DNA polymerase (Thermo Fisher Scientific). PCR products were sequenced using a specific sequencing primer, and the ratio of A and G peaks in the chromatograms were analyzed by CodonCode Aligner (CodonCode Corporation).
The 54 compounds identified in the high-throughput screen were further tested in the in vitro editing assay described in Examples 1 and 2. The in vitro editing reaction mixture, containing 5 nM of telomere RNA:RNA duplex substrates and 75 nM of HAT-ADAR1p110-WT, FLAG-ADAR1p110-WT, or HA-ADAR1p110-EAA protein, was incubated at 37° C. for 2 h in in vitro editing buffer I (20 mM HEPES-KOH pH 7.5, 100 mM NaCl, 0.01% NP-40, 5% glycerol, 1 mM DTT) with 10 microM test compound. For editing of RNA:DNA hybrid substrates, in vitro editing buffer II (20 mM HEPES-KOH pH 7.5, 20 mM NaCl, 0.01% NP-40, 5% glycerol, 1 mM DTT) was used. Edited RNA or DNA strands were purified using Dynabeads MyOne Streptavidin C1 (Thermo Fisher Scientific). To remove opposite RNA or DNA strands, Rnase H (NEB) or TuRBO Dnase (Thermo Fisher Scientific) was used, respectively. For sequencing of edited substrates, reverse transcription-PCR was carried out for RNA strands, while PCR was carried out for DNA strands. RT reactions were carried out using SuperScript III Reverse Transcriptase (Thermo Fisher Scientific), and PCR reactions were performed using Platinum Taq DNA polymerase (Thermo Fisher Scientific). PCR products were sequenced using a specific sequencing primer, and the ratio of A and G peaks in the chromatograms were analyzed by CodonCode Aligner (CodonCode Corporation).

Assay [2] has as its system IMR90 normal fibroblast cells. The experiment in a line: Apo Tox-Glo viability assay, IMR90 normal fibroblast cells. Particulars: 5 μM, 3 days. The assay is classed as cell-based. The protocol: (§1) HeLa, U2OS, and MRI90 cells were cultured in the presence of ADAR1 inhibitors, 5 μM or 20 μM, for 3 days. Their viability was examined using the Apo Tox-Glo assay system (Promega), which measures plasma membrane penetration of glycyl-phenyl-alanyl-aminofluorocoumarin peptide. Control, 0.3% DMSO. […] Data are mean±S.D. (n=3, biological replicates).
(§2) FIGS. 29A-29D Characterization of Compound #13 effects in cancer cells. […] Viability was examined using the Apo Tox-Glo assay system (Promega). Control, 0.3% DMSO. (FIG. 29B) Western blotting analysis of HeLa cells treated with Compound #13 (10 μM). […] (FIG. 29D) Activation of the IFN signaling pathway. HSC-4 squamous carcinoma cells were treated with Compound #13 at 10 μM (12 hrs). RNA samples were analyzed by qRT-PCR to monitor expression levels of ISGs.

In assay [3] the test system is HeLa cells. The experiment in a line: Apo Tox-Glo viability assay, HeLa cells. The assay is classed as cell-based, human. Particulars: 5 μM, 3 days. The protocol:
as §1, §2

Assay [4] concerns U2OS cells. The experiment in a line: Apo Tox-Glo viability assay, U2OS cells. Particulars: 5 μM, 3 days. The class given is cell-based, human. The protocol:
as §1, §2

Where [5] appears, read: matched dsRNA substrate, read-out: IC50 estimated by in vitro editing assay, RNA:RNA.
The mark [6] stands for this setting: mismatched dsRNA substrate, read-out: IC50 estimated by in vitro editing assay, RNA:mmRNA.
[7] abbreviates: DNA:RNA mismatched hybrid substrate, read-out: IC50 estimated by in vitro editing assay, DNA:mmRNA.

“Also recorded” adds a separate entry of the source. Read-outs that look alike come from different tables or passages of the source.

Take `NC(=NOC(=O)c1ccc([N+](=O)[O-])o1)c1ccc(OCc2ccc(Cl)cc2)c(Cl)c1` [Compound #1, [[amino-[3-chloro-4-[(4-chlorophenyl)methoxy]phenyl]methylidene]amino]5-nitrofuran-2-carboxylate]: the figures for the IC50 in assay [1] (setting [5]) and in assay [1] (setting [6]) were 27 µM and 33 µM, respectively. Besides, in assay [2], the “viability of MRI90 (normal fibroblast) cells” value (from here on “viability of MRI90”) is on record as “very little effects”. The “viability of HeLa (non-ALT) cells” value in assay [3] is listed as “significantly decreased viability; also recorded: significantly reduced viability”.

`O=C(Nc1ccccc1)c1sc2ccccc2c1Cl` [Compound #13-Analog 1]: in assay [1], the “inhibitory potency of ADAR1 p110 editing activity (SAR analogs)” value is “complete loss of inhibitory potency; also recorded: inactive compound”.

Turning to `N#Cc1ccccc1NC(=O)c1sc2ccccc2c1Cl` [Compound #13-Analog 2], the “inhibitory potency of ADAR1 p110 editing activity (SAR analogs)” value in assay [1] is “weaker but retained A-to-I editing inhibitory activity”.

Regarding `Cc1cc(C)n2nc(-c3ccccc3)cc2n1` [compound 6, 5,7-dimethyl-2-phenylpyrazolo[1,5-a]pyrimidine], the IC50 in assay [1] (setting [7]) is 30 to 76 µM. Besides, the “viability of U2OS (ALT) cells” value in assay [4] is reported as “very little effects”. The “viability of MRI90” value in assay [2] is reported as “very little effects”. Also, the “viability of HeLa (non-ALT) cells” value in assay [3] is recorded as “significantly decreased viability; also recorded: significantly reduced viability”.

`N#Cc1c(-c2ccccc2)cc(SCc2ccc(Cl)cc2)n2c1nc1ccccc12` [compound 23, 1-[(4-chlorophenyl)methylsulfanyl]-3-phenylpyrido[1,2-a]benzimidazole-4-carbonitrile]: the IC50 in assay [1] (setting [5]) was 66.9 µM; in assay [1] (mismatched dsRNA substrate, adenosine position 6, read-out: IC50 estimated by in vitro editing assay, RNA:mmRNA, Position 6) it was 66.4 µM.

Take `CSc1[nH]nc(-c2ccc(Cl)cc2)c1C#N` [compound 27, 5-(4-chlorophenyl)-3-methylsulfanyl-1H-pyrazole-4-carbonitrile]: the IC50 in assay [1] (setting [7]) was 5 to 17 µM. Moreover, the “viability of U2OS (ALT) cells” value in assay [4] is “very little effects”. Further, the “viability of MRI90” value in assay [2] is “very little effects”. Moreover, in assay [3], the “viability of HeLa (non-ALT) cells” value is on record as “significantly decreased viability; also recorded: significantly reduced viability”.

For `Cc1cc(C)n(-c2ccc(N3CCSCC3)nn2)n1` [compound 37, 4-[6-(3,5-dimethylpyrazol-1-yl)pyridazin-3-yl]thiomorpholine], the IC50 was 3 to 10 µM in assay [1] (setting [7]); 68.5 µM in assay [1] (matched dsRNA substrate, adenosine position 2, read-out: IC50 estimated by in vitro editing assay, RNA:RNA, Position 2); 3 µM in assay [1] (matched dsRNA substrate, adenosine positions 3 & 6, read-out: IC50 estimated by in vitro editing assay, RNA:RNA, Position 3 & 6); 46 µM in assay [1] (setting [6]).

Consider `COc1cc(C2=NNC(=O)CC2)cc(OC)c1OC` [compound 40, 3-(3,4,5-trimethoxyphenyl)-4,5-dihydro-1H-pyridazin-6-one], for which the concentration for half-maximal inhibition (IC50) is 57.6 µM in assay [1] (setting [5]) and 27.2 µM in assay [1] (setting [6]).

Take `CSc1nc(SC)c(C#N)c(-c2ccco2)n1` [compound 52, 4-(furan-2-yl)-2,6-bis(methylsulfanyl)pyrimidine-5-carbonitrile]: the IC50 in assay [1] (setting [7]) was 1.5 to 3 µM. For the same molecule, in assay [1] (matched dsRNA substrate, FIG. 25C, 10 microM test compound), the “inhibition of editing of A:U matched dsRNA” value is reported as “not A:U matched dsRNA”. For the same molecule, the “inhibition of editing of A-C mismatched dsRNA” value in assay [1] (mismatched dsRNA substrate, FIG. 25C, 10 microM test compound) was “inhibited A-C mismatched dsRNA”; in assay [1] (mismatched dsRNA substrate, FIG. 25C, 10 microM test compound, listed as #52), “more specific inhibitory effects on adenosine at A-C mismatched base pairs”.
